Source: paper PMC5586252, “PP2A-B′ holoenzyme substrate recognition, regulation and role in cytokinesis” (Cell Discovery, 2017)
Entries after “also recorded” stand apart in the source; their conditions may differ. Where no end group is shown, it is not given here.

Columns and labels:
[1] = test system: PP2Ac–Cyk4 interaction in HeLa cells; assay: Co-immunoprecipitation of FLAG-Cyk4 with PP2Ac in synchronized cells; assay type: cell-based; conditions: 200 nM for 30 min; HeLa cells with FLAG-Cyk4 and V5-CIP2A, synchronized with monastrol, 0–90 min after its removal
Method: Thirty-six hours after HeLa cells were transfected with FLAG-Cyk4 and V5-CIP2A expression vectors, the transfected cells were arrested at […] with 100 μM monastrol for 14 h, followed by incubation with 200 nM BI-2536 or solvent control for 30 min. Cells were collected at the indicated time points after removal of monastrol to allow cell cycle progression. The interaction between FLAG-Cyk4 and PP2Ac were determined by co-immunoprecipitation using antibody that specifically recognizes FLAG-tag. PP2Ac associated with FLAG-Cyk4 and from cell lysate input were determined by western blot using customer-made antibody against PP2Ac.

B′γ1 = biological target: T1, B′γ1 (Homo sapiens, UniProt Q13362); assay: Isothermal titration calorimetry of synthetic peptides; assay type: binding; conditions: for interaction with B′γ1 by ITC (in words): phospho-peptides with pS/pT at position 6 and negatively charged residues at positions 2, 7 and 8; for Kd: ITC, 1 mM peptide titrated to 20–50 μM B′γ1, 20 mM HEPES pH 7.5, 200 mM NaCl
T1 construct: Expression and purification of full-length PP2A Aα, Cα, B′γ1 and PR70 (B″ family); made in house
T1 sequence (Q13362 whole entry, looked up): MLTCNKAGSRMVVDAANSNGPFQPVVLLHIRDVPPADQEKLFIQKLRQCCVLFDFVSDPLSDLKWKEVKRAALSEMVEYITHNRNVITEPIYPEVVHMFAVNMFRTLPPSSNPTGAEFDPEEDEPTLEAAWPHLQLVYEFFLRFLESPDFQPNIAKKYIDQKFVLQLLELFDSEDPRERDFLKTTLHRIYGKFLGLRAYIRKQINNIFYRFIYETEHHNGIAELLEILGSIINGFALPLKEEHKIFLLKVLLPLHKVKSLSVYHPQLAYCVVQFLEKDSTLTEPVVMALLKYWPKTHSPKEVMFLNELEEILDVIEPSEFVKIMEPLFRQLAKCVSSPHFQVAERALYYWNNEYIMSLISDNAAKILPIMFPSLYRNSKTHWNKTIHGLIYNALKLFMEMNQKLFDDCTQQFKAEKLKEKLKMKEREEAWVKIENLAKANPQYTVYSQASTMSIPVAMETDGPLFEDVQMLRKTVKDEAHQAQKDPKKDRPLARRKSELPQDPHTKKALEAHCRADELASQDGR
Method: The binding affinities between B′γ1 and synthetic CIP2A and Cyk4 peptides (GenScript, Piscataway, NJ, USA) were determined by titrating 1 mM of peptides to 20–50 μM B′γ1 in 20 mM HEPES (pH 7.5), 200 mM NaCl using VP-ITC microcalorimeter (MicroCal, Malvern Instrument, Malvern, UK). The data were fitted with Origin 7.0 (MicroCal, Malvern Instrument, Malvern, UK) to calculate the equilibrium association constant.

| Kd (B′γ1) [µM] | Compound | interaction with B′γ1 by ITC (in words) (B′γ1) | other results |
| --- | --- | --- | --- |
| – | CC[C@@H]1C(=O)N(C)c2cnc(Nc3ccc(C(=O)NC4CCN(C)CC4)cc3OC)nc2N1C1CCCC1 [BI-2536] | – | effect on interaction between PP2Ac and Cyk4 (co-IP) [1]: blocked and delayed the interaction between PP2Ac and Cyk4 |
| – | LEPIRpSEE | no binding; also recorded: no interaction could be detected | – |
| – | LEPIRpTEE | no binding; also recorded: no interaction could be detected | – |
| – | LEPVRpSEE | no binding; also recorded: no interaction could be detected | – |
| 1.59 | NKRLSTIDEEGS [Cyk4 peptide S149E] | – | – |
| 7.2 | NRKLESVAEEHE [CIP2A peptide] | – | – |
